Data as given in patent publication US20230322805A1, “NOVEL PYRIMIDODIAZEPINE DERIVATIVES OR USES THEREOF” (SPARK BIOPHARMA, INC., priority 2020, published 2023).

Tests used:
[1] = tested on: BiFC-tau Venus HEK293 cells (tau aggregation, hTau441); assay: BiFC-tau Venus HEK293 cell assay monitoring tau aggregation under thapsigargin; assay type: cell-based, human; details: for IC50 / activity at 10 µM: Homo sapiens; for IC50: HEK293, inhibition of BiFC-tau Venus fluorescence, 80 nM thapsigargin, table head prints no unit, μM, read-out: BiFC-tau intensity (IC50); for activity at 10 µM: HEK293-BiFC-tau-Venus cells co-treated with 10 μM compound and 80 nM thapsigargin for 24 hours, read-out: BiFC-tau intensity (%)
Protocol: Phenotype-based screening to monitor tau assembly was performed using BiFC-tau Venus HEK293 cells in a high-throughput manner. Cells were seeded in 384-well plates at a density of 2.8×10^3 cells/well in 40 μL medium for 24 hours. Cells were treated with 80 nM thapsigargin (Sigma-Aldrich) in 10 μL medium and then ˜ 3,000 pDOS library compounds (10 μM), including compounds according to the present invention, using a 0.1 μL pinning tool. For knockdown experiments, cells were transfected with 5 or 10 nM siRNA using Lipofectamine RNAiMAX and incubated for 48 hours before thapsigargin treatment. […] Plates were scanned on an INCell Analyzer 2000 (GE Healthcare) at λex/λem=490/525 nm for Venus fluorescence (for the FITC channel) and λex/λem=350/455 nm for nuclei (for the DAPI channel). Bright-field images were taken to confirm cell morphology, and images were analyzed to quantify Venus intensity per cell using developer software (GE Healthcare).
1-1. According to the method described in Examples 1-15 above, the expression of Venus-based bimolecular fluorescence complemented-tau (BiFC-tau) was confirmed using HEK293 human embryonic kidney cells, thereby phenotyping the phenotype-based screening was performed.
The N-terminal Venus (VN173) and C-terminal Venus (VC155) fragment sequences are fused with the full-length human tau (hTau441) sequence to form the BiFC-tau Venus HEK293 cell system. Soluble tau dimers can be measured by monitoring the turn-on/off signal of Venus fluorescence through co-expression of the two fused vectors, hTau441-VN173 and hTau441-VC1 55.
As a stimulator of tau aggregation, thapsigargin (TG; an ER stress inducer), a direct inhibitor of sarco/endoplasmic reticulum Ca2^+-ATPase, was used. This disrupts calcium homeostasis. Thapsigargin treatment induces tau dimerization (tau aggregation), which can be confirmed by BiFC-tau Venus fluorescence turn-on.

[2] = tested on: acute Alzheimer's mouse model; assay: Acute Alzheimer's mouse model (acquisition and probe test); assay type: in vivo; details: acute Alzheimer's mouse model
Protocol: 7-1. Potential therapeutic effect of SB1617 in an acute Alzheimer's mouse model was identified, and the design for the experiment is schematically shown in FIG. 40
7-3. As a result of confirming the treatment efficacy through a probe test, after removing the platform, it was performed by recording how many times the mouse passed the position where the platform was […]

Structure (SMILES) | melting point | IC50 [1] | activity at 10 µM [1] | change in Venus fluorescence intensity ([1]; various concentrations with 80 nM TG for 20 hours) | learning ability (Acquisition test), rank order [2]
Cc1ccc(S(=O)(=O)N2[C@H]3CNc4ncnc(N(C)Cc5ccccc5)c4[C@@H]2OC3)cc1 [Compound 101] | 150 to 152 °C | 9.1 µM | 65% | – | –
COc1ccc(S(=O)(=O)N2[C@H]3CNc4ncnc(N(C)Cc5ccccc5)c4[C@@H]2OC3)cc1 [Compound 102] | 121 to 123 °C | – | 79% | – | –
CN(Cc1ccccc1)c1ncnc2c1[C@@H]1OC[C@H](CN2)N1S(=O)(=O)c1ccccc1[N+](=O)[O-] [Compound 103] | – | – | 102% | – | –
CN(Cc1ccccc1)c1ncnc2c1[C@@H]1OC[C@H](CN2)N1S(=O)(=O)c1cccc([N+](=O)[O-])c1 [Compound 104] | – | – | 115% | – | –
CN(Cc1ccccc1)c1ncnc2c1[C@@H]1OC[C@H](CN2)N1S(=O)(=O)c1ccc([N+](=O)[O-])cc1 [Compound 105] | 97 to 99 °C | 5.2 µM | 46% | – | –
CN(Cc1ccccc1)c1ncnc2c1[C@@H]1OC[C@H](CN2)N1S(=O)(=O)c1ccc(F)cc1 [Compound 106] | 105 to 107 °C | – | 81% | – | –
CN(Cc1ccccc1)c1ncnc2c1[C@@H]1OC[C@H](CN2)N1S(C)(=O)=O [Compound 107] | 136 to 138 °C | – | 94% | the activity was lost | –
CN(Cc1ccccc1)c1ncnc2c1[C@@H]1OC[C@H](CN2)N1S(=O)(=O)c1ccccc1 [Compound 108] | 120 to 122 °C | – | 105% | – | –
CN(Cc1ccccc1)c1ncnc2c1[C@@H]1OC[C@H](CN2)N1S(=O)(=O)Cc1ccccc1 [Compound 109] | 78 to 80 °C | – | 84% | – | –
CN(Cc1ccccc1)c1ncnc2c1[C@@H]1OC[C@H](CN2)N1S(=O)(=O)c1cccnc1 [Compound 110] | 185 to 187 °C | – | 130% | – | –
CN(Cc1ccccc1)c1ncnc2c1[C@@H]1OC[C@H](CN2)N1S(=O)(=O)c1cccs1 [Compound 111] | 112 to 114 °C | – | 110% | – | –
CN(C)c1ncnc2c1[C@@H]1OC[C@H](CN2)N1S(=O)(=O)c1ccc([N+](=O)[O-])cc1 [Compound 112] | 118 to 120 °C | – | 90% | – | –
CN(CCc1ccccc1)c1ncnc2c1[C@@H]1OC[C@H](CN2)N1S(=O)(=O)c1ccc([N+](=O)[O-])cc1 [Compound 113] | 108 to 110 °C | – | 71% | – | –
CC(C)N(Cc1ccccc1)c1ncnc2c1[C@@H]1OC[C@H](CN2)N1S(=O)(=O)c1ccc([N+](=O)[O-])cc1 [Compound 114] | 85 to 87 °C | 6.9 µM | 47% | – | –
C=C(C)c1ncnc2c1[C@@H]1OC[C@H](CN2)N1S(=O)(=O)c1ccc([N+](=O)[O-])cc1 [Compound 115] | 200 to 202 °C | – | 99% | – | –
COc1ccc(-c2ncnc3c2[C@@H]2OC[C@H](CN3)N2S(=O)(=O)c2ccc([N+](=O)[O-])cc2)cc1 [Compound 116] | 250 to 252 °C | – | 135% | – | –
CN(Cc1ccc(F)cc1)c1ncnc2c1[C@@H]1OC[C@H](CN2)N1S(=O)(=O)c1ccc([N+](=O)[O-])cc1 [Compound 118] | 102 to 104 °C | 7.6 µM | 55% | – | –
CN(Cc1ccc(N=[N+]=[N-])cc1)c1ncnc2c1[C@@H]1OC[C@H](CN2)N1S(=O)(=O)c1ccc([N+](=O)[O-])cc1 [Compound 119] | 88 to 90 °C | 4.6 µM | 56% | – | –

Structure (SMILES) | melting point | IC50 [1] | activity at 10 µM [1] | change in Venus fluorescence intensity ([1]; various concentrations with 80 nM TG for 20 hours) | learning ability (Acquisition test), rank order [2]
CN(Cc1ccc(Cl)cc1)c1ncnc2c1[C@@H]1OC[C@H](CN2)N1S(=O)(=O)c1ccc(F)cc1 [Compound 120] | 150 to 152 °C | – | 81% | – | –
COc1ccc(S(=O)(=O)N2[C@H]3CNc4ncnc(N(C)Cc5ccc(Cl)cc5)c4[C@@H]2OC3)cc1 [Compound 121] | 156 to 158 °C | 6.6 µM | 51% | – | –
CC(=O)N1C[C@H]2CO[C@@H](c3c(N(C)Cc4ccc(Cl)cc4)ncnc31)N2S(=O)(=O)c1ccc([N+](=O)[O-])cc1 [Compound 122] | 105 to 107 °C | – | 81% | – | –
CN(Cc1ccc(Cl)cc1)c1ncnc2c1[C@@H]1OC[C@H](CN2C(=O)C2CC2)N1S(=O)(=O)c1ccc([N+](=O)[O-])cc1 [Compound 123] | 124 to 126 °C | – | 78% | – | –
C#Cc1ccc(S(=O)(=O)N2[C@H]3CNc4ncnc(N(C)Cc5ccc(N=[N+]=[N-])cc5)c4[C@@H]2OC3)cc1 [Compound 124] | 139 to 141 °C | 8.1 µM | 50% | – | –
CN(Cc1ccc(Cl)cc1)c1ncnc2c1[C@H]1OC[C@@H](CN2)N1S(=O)(=O)c1ccc([N+](=O)[O-])cc1 [Compound 125] | – | – | 98% | – | –
C=CCOC(=O)N1[C@H]2CNc3ncnc(N(C)Cc4ccc(Cl)cc4)c3[C@@H]1OC2 [Compound 126] | – | – | 100% | – | –
CN(Cc1ccc(Cl)cc1)c1ncnc2c1CN(S(=O)(=O)c1ccc([N+](=O)[O-])cc1)[C@H](CO)CN2 [Compound 127] | – | – | 100% | – | –
CN(Cc1ccc(Cl)cc1)c1ncnc2c1[C@H]1OCC[C@@H](CN2)N1S(=O)(=O)c1ccc([N+](=O)[O-])cc1 [Compound 128] | – | – | 95% | – | –
CN(Cc1ccc(Cl)cc1)c1ncnc2c1[C@@H]1OC[C@H](CN2C(=O)c2ccc(F)cc2)N1S(=O)(=O)c1ccc([N+](=O)[O-])cc1 [Compound 129] | – | – | 70% | – | –
CCN1C[C@H]2CO[C@@H](c3c(N(C)Cc4ccc(Cl)cc4)ncnc31)N2S(=O)(=O)c1ccc([N+](=O)[O-])cc1 [Compound 130] | – | – | 70% | – | –
CN(Cc1ccc(Cl)cc1)c1ncnc2c1[C@@H]1SC[C@H](CN2)N1S(=O)(=O)c1ccc([N+](=O)[O-])cc1 [Compound 131] | – | – | 98% | – | –
CN(Cc1ccc(Cl)cc1)c1ncnc2c1[C@@H]1SC[C@@H](CN2)N1C(=O)OC(C)(C)C [Compound 132] | – | – | 80% | – | –
CN(Cc1ccc(Cl)cc1)c1ncnc2c1[C@@H]1SC[C@H](CN2)N1C(=O)Nc1ccc([N+](=O)[O-])cc1 [Compound 133] | – | – | 94% | – | –
CN(Cc1ccc(Cl)cc1)c1ncnc2c1[C@H]1N(S(=O)(=O)c3ccc([N+](=O)[O-])cc3)[C@@H](CN2)CS1(=O)=O [Compound 134] | – | – | 100% | – | –
COc1ccc(CN(C)c2ncnc3c2[C@@H]2SC[C@H](CN3)N2S(=O)(=O)c2ccc([N+](=O)[O-])cc2)cc1 [Compound 135] | – | – | 57% | – | –
CNc1ncnc2c1[C@@H]1OC[C@H](CN2)N1S(=O)(=O)c1ccc([N+](=O)[O-])cc1 [Compound 136] | – | – | 10% | – | –
COc1cc2c(cc1OC)C(=O)C(CC1CCN(Cc3ccccc3)CC1)C2 (centres unmarked) [Donepezil, reference compound] | – | – | – | – | WT >Donepezil >SB-1617>Vehicle
